Calls of active or inactive are those of the source.
How the values were obtained:
[1] = A cytotoxicity screen of small molecule inhibitors of the PhoP region in Salmonella typhi identified in the primary screen. [Related pubchem assays: 1850, 1864, 1985 ]; format: functional
X-box-binding protein 1 = X-box-binding protein 1 (Homo sapiens, UniProt P17861); format: functional, Cricetulus griseus;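 note: confirmatory dose-response counter-screen serving a CHOP assay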
Cytochrome P450 2C19 = Cytochrome P450 2C19 (Homo sapiens, UniProt P33261); assay: Cytochrome panel assay with activity outcomes. Panel member name: p450-cyp2c19 Compounds with AC50 equal or less than 10 uM are considered active; format: functional; conditions: read-out: AC50
[2] = A Cell Based Secondary Assay To Explore Cytotoxicity of Compounds that Sensitize Mycobacterium Tuberculosis to Beta-Lactam Antibiotics.; format: functional
[3] = Luminescence-based dose response cell-based high throughput screening assay for cytotoxic compounds using the IEC-6 intestinal epithelial cell line. [Related pubchem assays: 1858 (Summary AID.), 1825 (Counterscreen.), 1907 (Confirmation screen.)]; format: functional
[4] = target: T1, Heat shock factor protein 1 (Mus musculus, UniProt P38532); assay: decrease of HSF1-responsive luciferase luminescence – cell-based, NIH3T3, dose retest, confirmation (AID 2382); format: functional;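 note: NIH3T3 fibroblasts with HSF1-driven luciferase reporter stressed by proteasome inhibitor MG132; luminescence from HSF1-driven luciferase expression after 8 hours of MG132 stress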
T1 sequence (P38532 whole entry): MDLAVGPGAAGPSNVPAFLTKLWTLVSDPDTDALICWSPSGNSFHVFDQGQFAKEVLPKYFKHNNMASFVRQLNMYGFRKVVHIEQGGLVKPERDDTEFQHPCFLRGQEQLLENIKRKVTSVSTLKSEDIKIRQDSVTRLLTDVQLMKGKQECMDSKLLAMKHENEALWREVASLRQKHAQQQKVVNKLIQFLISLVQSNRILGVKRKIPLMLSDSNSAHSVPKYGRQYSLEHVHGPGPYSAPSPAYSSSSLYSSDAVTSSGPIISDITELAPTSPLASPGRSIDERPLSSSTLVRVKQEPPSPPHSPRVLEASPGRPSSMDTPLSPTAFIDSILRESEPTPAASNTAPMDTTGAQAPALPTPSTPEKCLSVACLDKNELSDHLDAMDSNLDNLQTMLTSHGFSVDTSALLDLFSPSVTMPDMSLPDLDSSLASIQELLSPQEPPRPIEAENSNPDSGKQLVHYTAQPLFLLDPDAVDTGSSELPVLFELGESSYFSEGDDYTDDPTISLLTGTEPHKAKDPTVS

[5] = blockers of bursicon-stimulated LGR2 cAMP reporter – cell-based, HEK293, CRE-luciferase reporter, cherry pick, set 2, dose response (AID 743343); format: functional;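 note: transfected cells were stimulated with diluted bursicon conditioned medium after compound addition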
[6] = NIH3T3 cell viability loss – ATP luminescence, mouse fibroblasts, counter-screen, dose response (AID 2010); format: functional, cell-based;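 note: cells exposed to compound for about 90 hours before reading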
[7] = A549 cell cytotoxicity, dose response, cytotoxicity control, plate reader, cherry-pick, antagonist series (AID 743412); format: functional, cell-based
[8] = microbe, parasite or virus in culture; format: functional; conditions: Mycobacterium tuberculosis
[9] = non-specific 3'UTR reporter inhibition in Clone20-Shn3RL – cell-based, Renilla luciferase, cherry-picked, counter-screen for Shn3 inhibitor project, dose response (AID 624133); format: functional
INS1 = assay: INS-1E survival protection against cytokine death – cell-based, luminescence, retest, dose response (AID 449756); format: functional; conditions: Rattus norvegicus;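 note: cell death triggered by IL-1 beta plus TNF-alpha plus IFN-gamma mixture; protective hits raise ATP signal compared with cytokine alone wells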
[10] = Fluorescence-based cell-based high throughput dose response assay for inhibitors of the interaction of nucleotide-binding oligomerization domain containing 2 (NOD2) and the receptor-interacting serine-threonine kinase 2 (RIPK2).; format: functional; conditions: Homo sapiens
[11] = toxicity toward HepG2 liver cells – cell-based, plate reader, cherry-pick, antagonist series, cytotoxicity control, dose response (AID 743416); format: functional
[12] = reduction of Shn3 3'UTR-driven luciferase in osteoblasts – cell-based, Clone20 osteoblasts, firefly luciferase, cherry-picked, dose response (AID 624132); format: functional;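 note: firefly luciferase luminescence from reporter carrying the Shn3 3'UTR in osteoblasts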
[13] = loss of viability in HepG2 cells – cell-based, CellTiter-Glo, cherry-picked, cytotoxicity control for Shn3 inhibitor project, dose response (AID 624134); format: functional
[14] = blockade of melanocortin 4 receptor signaling – cell-based, plate reader, cherry pick, counter-screen for LGR2 antagonist project, dose response (AID 743444); format: functional;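 note: transfected HEK 293 cells stimulated with alpha-MSH peptide; potency of inhibitors of the alpha-MSH evoked signal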
[15] = target: T2, Type-1 angiotensin II receptor (Homo sapiens, UniProt P30556); assay: antagonism of angiotensin II type 1 receptor – cell-based, uHTS hits, selectivity assay for APJ receptor antagonist project, dose response (AID 463214); format: functional;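 note: antagonist potency against angiotensin II stimulated AT1 response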
T2 sequence (P30556 whole entry): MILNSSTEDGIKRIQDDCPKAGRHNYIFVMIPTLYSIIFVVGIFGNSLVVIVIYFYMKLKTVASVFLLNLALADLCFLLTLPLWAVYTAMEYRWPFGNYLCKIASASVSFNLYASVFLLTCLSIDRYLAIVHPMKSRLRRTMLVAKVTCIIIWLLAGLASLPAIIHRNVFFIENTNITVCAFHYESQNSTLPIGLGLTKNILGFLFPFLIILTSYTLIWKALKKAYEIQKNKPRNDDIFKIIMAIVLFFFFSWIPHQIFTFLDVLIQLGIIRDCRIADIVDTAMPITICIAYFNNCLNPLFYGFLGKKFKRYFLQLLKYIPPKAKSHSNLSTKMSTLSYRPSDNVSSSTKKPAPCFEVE

Beta-galactosidase = Beta-galactosidase (Escherichia coli, UniProt Q8VNN2); assay: PubChem AID 485352; format: functional
[16] = viability loss in HEK293 cells – cell-based, plate reader, cherry-picked samples, cytotoxicity control, dose response (AID 743446); format: functional
[17] = Trypanosoma cruzi growth suppression in host cells – NIH3T3 host cells, beta-gal luminescence, confirmation (AID 2044); format: functional, cell-based;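 note: intracellular parasites grown in NIH/3T3 mouse fibroblasts as host cells; luminescent beta-galactosidase reporter signal from transgenic T. cruzi replicating inside host cells; inhibitors lower the luminescence signal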
[18] = Luminescence Cell-Based Dose Confirmation HTS to Identify Inhibitors of Polyadenylation.; format: functional
[19] = target: T3, Alkaline phosphatase, tissue-nonspecific isozyme (Homo sapiens, UniProt P05186)
T3 sequence (P05186 whole entry): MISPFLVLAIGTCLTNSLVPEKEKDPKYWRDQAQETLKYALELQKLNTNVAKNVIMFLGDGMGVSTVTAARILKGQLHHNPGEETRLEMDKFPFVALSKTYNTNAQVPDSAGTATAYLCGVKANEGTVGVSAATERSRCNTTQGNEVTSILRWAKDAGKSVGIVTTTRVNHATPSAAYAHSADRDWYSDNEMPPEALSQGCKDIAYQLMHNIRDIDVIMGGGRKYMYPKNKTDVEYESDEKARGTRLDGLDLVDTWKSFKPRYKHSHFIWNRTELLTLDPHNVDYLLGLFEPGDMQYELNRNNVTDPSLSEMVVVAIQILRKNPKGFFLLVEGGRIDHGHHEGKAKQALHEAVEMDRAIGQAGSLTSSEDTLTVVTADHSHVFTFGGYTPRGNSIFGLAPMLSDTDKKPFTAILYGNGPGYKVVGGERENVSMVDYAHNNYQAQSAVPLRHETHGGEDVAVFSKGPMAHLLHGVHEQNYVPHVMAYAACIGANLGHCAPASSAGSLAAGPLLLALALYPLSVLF

Chain of Cytochrome P450 2C19 (P33261 whole entry): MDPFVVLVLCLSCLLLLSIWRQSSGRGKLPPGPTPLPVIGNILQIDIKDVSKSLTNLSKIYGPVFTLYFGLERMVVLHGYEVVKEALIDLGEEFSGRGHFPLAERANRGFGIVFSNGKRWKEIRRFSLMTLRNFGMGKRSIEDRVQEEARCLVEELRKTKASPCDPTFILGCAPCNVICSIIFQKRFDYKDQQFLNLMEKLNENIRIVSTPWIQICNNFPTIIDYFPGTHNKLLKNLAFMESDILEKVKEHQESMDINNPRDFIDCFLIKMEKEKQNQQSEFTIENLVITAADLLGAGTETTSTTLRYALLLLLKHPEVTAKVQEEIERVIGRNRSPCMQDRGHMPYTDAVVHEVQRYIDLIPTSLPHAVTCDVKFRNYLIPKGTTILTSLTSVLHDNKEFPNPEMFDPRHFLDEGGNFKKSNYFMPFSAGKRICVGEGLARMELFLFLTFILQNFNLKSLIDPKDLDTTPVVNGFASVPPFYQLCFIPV
Chain of X-box-binding protein 1 (P17861 whole entry): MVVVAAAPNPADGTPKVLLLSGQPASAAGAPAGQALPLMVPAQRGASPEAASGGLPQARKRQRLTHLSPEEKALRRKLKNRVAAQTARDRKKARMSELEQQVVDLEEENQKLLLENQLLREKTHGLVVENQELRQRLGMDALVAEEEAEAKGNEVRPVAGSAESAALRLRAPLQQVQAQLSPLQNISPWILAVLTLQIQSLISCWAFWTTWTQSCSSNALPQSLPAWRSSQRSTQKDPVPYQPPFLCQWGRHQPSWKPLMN
Chain of Beta-galactosidase (Q8VNN2 whole entry): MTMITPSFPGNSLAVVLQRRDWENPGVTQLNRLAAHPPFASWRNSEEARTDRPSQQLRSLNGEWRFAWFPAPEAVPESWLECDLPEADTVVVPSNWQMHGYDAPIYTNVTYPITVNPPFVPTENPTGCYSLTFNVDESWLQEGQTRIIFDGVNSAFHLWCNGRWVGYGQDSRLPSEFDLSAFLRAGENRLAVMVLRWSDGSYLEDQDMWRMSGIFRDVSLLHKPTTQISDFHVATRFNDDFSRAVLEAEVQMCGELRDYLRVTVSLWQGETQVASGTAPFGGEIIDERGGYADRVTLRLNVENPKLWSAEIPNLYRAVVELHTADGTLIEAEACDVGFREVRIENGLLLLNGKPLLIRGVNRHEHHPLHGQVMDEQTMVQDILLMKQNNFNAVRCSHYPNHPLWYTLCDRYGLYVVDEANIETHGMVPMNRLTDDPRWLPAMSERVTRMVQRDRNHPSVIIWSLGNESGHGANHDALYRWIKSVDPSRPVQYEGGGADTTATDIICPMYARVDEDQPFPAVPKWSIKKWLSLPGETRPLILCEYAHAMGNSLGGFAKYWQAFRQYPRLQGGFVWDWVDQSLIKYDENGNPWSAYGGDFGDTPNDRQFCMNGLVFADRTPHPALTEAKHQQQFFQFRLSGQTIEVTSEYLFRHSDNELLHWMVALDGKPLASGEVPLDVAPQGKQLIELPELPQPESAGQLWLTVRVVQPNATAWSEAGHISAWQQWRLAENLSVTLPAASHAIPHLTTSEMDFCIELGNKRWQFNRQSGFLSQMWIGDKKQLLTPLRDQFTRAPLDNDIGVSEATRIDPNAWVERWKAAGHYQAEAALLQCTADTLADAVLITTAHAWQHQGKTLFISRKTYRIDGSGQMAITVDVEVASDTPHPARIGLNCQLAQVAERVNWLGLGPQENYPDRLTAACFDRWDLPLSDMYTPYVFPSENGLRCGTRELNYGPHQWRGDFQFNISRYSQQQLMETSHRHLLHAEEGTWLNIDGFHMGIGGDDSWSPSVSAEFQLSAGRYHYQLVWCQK

Which EC50 [1] does the source give for `Cc1ccc(C2CC(=O)NC(SCCC(C)C)=C2C#N)cc1` (configuration not stated) here?
The EC50 was > 50 µM (active).

What does the source list for `CCOC(=O)c1[nH]c2ccc(Cl)cc2c1-c1ccccc1`?
Absolute IC50 (XBP1) (X-box-binding protein 1): 10 µM; AC50 (Cytochrome P450 2C19): 4.47 µM (inconclusive)

With `CCN(CC)C(=O)C1CCCN(c2ccc([N+](=O)[O-])cc2/C=N/NC(=O)c2cccc([N+](=O)[O-])c2)C1` (configuration not stated) as the compound, how does the CC50 [2] read?
Its CC50 is > 40 µM (active).

Which results are given for `O=[N+]([O-])c1ccc(S(=O)(=O)c2ccccc2)nc1`?
IC50 [3]: 3.48 µM (active); EC50 [4]: 5.64 µM (active); AC50 [5]: 3.97 µM (active); EC50 [6]: 2.5 µM (active); AC50 [7]: 8.59 µM (active); CC50 [8]: 8.09 µM (active); AC50 [9]: 3.96 µM (active); AC50 (INS1): 6.73 µM (active); IC50 [10]: 2.65 µM (active); AC50 [11]: 6.81 µM (active); AC50 [12]: 1.74 µM (active); AC50 [13]: 16.2 µM (active); AC50 [14]: 4.77 µM (active); IC50 [15]: 13.1 µM (active); EC50 (Beta-galactosidase): > 40 µM (inactive); AC50 [16]: 8.17 µM (active); EC50 [17]: 1.89 µM (active)

For `CC(NC(=O)CCCCCCN1C(=O)c2ccccc2C1=O)c1ccc2c(c1)CCCC2` (configuration not stated), which EC50 [18] is on record?
Its EC50 is > 120 µM (not active).

For `O=C(COC(=O)C1CC(=O)N(Cc2ccccc2)C1)Nc1ccc(Cl)cc1F` (configuration not stated), which EC50 [19] is on record?
Its EC50 is > 100 µM (not active).

For `Cc1ccc(CN2CCSc3ccc(C(=O)NC4CCN(Cc5ccccc5)CC4)cc32)cc1`, which EC50 [6] is on record?
The EC50 was > 60 µM (not active).

What about the CC50 [2] of the same compound?
The CC50 was > 40 µM (active).

What about the EC50 [17] of the same compound?
Its EC50 is 1.37 µM (active).

For `O=C(N/N=C/c1ccsc1)c1cc2ccccc2o1`, which EC50 [18] is on record?
The EC50 was > 120 µM (not active).

— ChEMBL document CHEMBL1201862, “PubChem BioAssay data set” (2004)
